According to PMC12412453 (Toxicology, 2021):
Values joined by “and” are separate entries in the source; they are usually repeats but may differ in a detail not shown here. Identical values can stand only once. Like-named read-outs stand apart in the source and are kept apart here.

How the values were obtained:
[1] = reported findings; ref References column of Table 1; cited from earlier work
[2] = system: primary macaque hepatocytes (PMHs); assay: Cytotoxicity by ATP assay; details: for Max. con.: maximum concentration
[3] = system: primary macaque hepatocytes (PMHs); assay: CometChip assay; details: for BMDU/BMDL / DNA damage (ratio of %DNA in tail at highest concentration to vehicle control) / LEC (lowest effective concentration) / BMDL50–BMDU50 / Potency ranking: PMH; for BMD50: PMH CometChip data, PROAST exponential model; for DNA damage (ratio of %DNA in tail at highest concentration to vehicle control) / LEC (lowest effective concentration): 24-h treatment; for LEC (lowest effective concentration): lowest concentration positive in comet assay; for BMDL50–BMDU50: 90 % confidence interval of BMD50; for Potency ranking: rank by BMD50 among nine positive compounds; for fold increase in % tail DNA (DNA damage) compared to the vehicle control: PMHs, highest acceptable concentration, range given for four compounds together
[4] = system: primary human hepatocytes (PHHs); details: cited from earlier work
[5] = system: primary human hepatocytes (PHHs); details: cited from earlier work; remark: listed apart in the source
[6] = cited from earlier work
[7] = reported findings; ref References column of Table 1; cited from earlier work; remark: listed apart in the source
cynomolgus monkeys = details: dosed cynomolgus monkeys; ref Thorgeirsson et al., 1995; cited from earlier work
[8] = system: primary macaque hepatocytes (PMHs); details: rhesus macaque, 24 h
[9] = Cytotoxicity by ATP assay; details: rhesus macaque, primary macaque hepatocytes (PMHs)
[10] = system: primary macaque hepatocytes (PMHs); details: rhesus macaque, 24 h; remark: listed apart in the source
[11] = PHH, ATP assay, 24-h treatment, ref Seo et al., 2020
[12] = PHH, maximum concentration, ref Seo et al., 2020
[13] = PHH CometChip data reanalyzed using PROAST, ref Seo et al., 2020
[14] = PHH, 90 % confidence interval of BMD50, ref Seo et al., 2020
[15] = PHH, rank by BMD50 among nine positive compounds, ref Seo et al., 2020
[16] = PHH, lowest concentration positive in comet assay, ref Seo et al., 2020
[17] = reported findings, ref References column of Table 1

Row | SMILES | Genotoxicity assay findings in vitro [1] | Max. con. ([2]; PMH, 24-h treatment) | Cytotoxicity ([2]; PMH, ATP assay, 24-h treatment) | Cytotoxicity [4, 11] | Max. con. [4, 12] | BMD50 [5, 13] | BMDL50–BMDU50 [5, 14] | Potency ranking [5, 15] | DNA damage (ratio of %DNA in tail at highest concentration to vehicle control) ([5]; PHH, ref Seo et al., 2020) | Genotoxicity assay findings in vivo [6, 17] | Carcinogenicity [7] | also measured
1 | Cc1ccc(N)cc1N [2,4-DAT, 2,4-diaminotoluene] | (+) for MLA, CA, MN, comet, and UDS; (−) for comet in HepaRG and Hprt | 8000 µM | + (11–30 %) | + (11–30 %) | 8000 µM | 880.6 µM | 489 to 1580 µM | 9 | ++ (2 < ratio ≤ 5) | (+) for UDS and comet; (+/−) for MN in BM | – | BMD50 fold higher in PMHs than in PHHs (lower in PHHs) ([3]; CometChip BMD50, PMH vs PHH): 3.2 fold; BMDU/BMDL [3]: 2.6; BMD50 [3]: 2831 µM; DNA damage (ratio of %DNA in tail at highest concentration to vehicle control) [3]: ++ (2 < ratio ≤ 5); LEC (lowest effective concentration) [3]: 8000 µM; BMDL50–BMDU50 [3]: 1790 to 4660 µM; Potency ranking [3]: 9; LEC (lowest effective concentration) [5, 16]: 1414 µM; BMDU/BMDL ([5]; PHH, ref Seo et al., 2020): 3.2
2 | CCCC(O)C(CC)CO (centres unmarked) [2-Ethyl-1,3-hexanediol] | (+) for CA + S9; (−) for MLA, Hprt, MN, and SCE | 10,000 μM | + (11–30 %) | + (11–30 %) | 10,000 μM | – | – | – | − (The ratio ≤ 1.5-fold and p ≥ 0.05) | – | (−) in dermal studies | –
3 | O=[N+]([O-])c1cc[n+]([O-])c2ccccc12 [4-NQO, 4-nitroquinoline 1-oxide] | (+) for CA, MLA, Pig-a, comet | 7.5 µM | + (11–30 %) | + (11–30 %) | 5 µM | 0.3 µM | 0.1 to 0.6 µM | 1 | – | – | – | –
4 | Cc1cnc2ccc3c(nc(N)n3C)c2n1 [8-MeIQx, 2-amino-3,8-dimethylimidazo[4,5-f]-quinoxaline] | – | – | – | – | – | – | – | – | – | – | – | DNA adducts in several organs, particularly liver, kidney, and heart (cynomolgus monkeys): high levels of DNA adducts
5 | c1ccc2c(c1)cc1ccc3cccc4ccc2c1c34 [B[a]P, benzo[a]pyrene] | (+) for MLA, CA, MN, Pig-a, comet, Hprt, and UDS | – | + (11–30 %) | + (11–30 %) | 100 µM | 9.2 µM | 5.2 to 16.3 µM | 5 | – | (+) for comet, MN, Pig-a and gene mutations | – | Max. con. [8]: 100 µM
6 | [Cl][Cd][Cl] [CdCl2, cadmium chloride] | (+) for MN, CA, MLA, Hprt, comet | 4 µM | ++ (31–50 %) | + (11–30 %) | 4 µM | 0.9 µM | 0.5 to 1.6 µM | 2 | + (1.5 < ratio ≤ 2, and p < 0.05) | (+) for CA and MN, comet in liver | (+) for lung, prostate, etc. | Cytotoxicity ([2]; PMHs, 4 μM, 24-h exposure): 43%; BMDU/BMDL [3]: 2.3; BMD50 [3]: 0.37 µM and 0.4 µM; DNA damage (ratio of %DNA in tail at highest concentration to vehicle control) [3]: +++ (the ratio > 5); LEC (lowest effective concentration) [3]: 2 µM; BMDL50–BMDU50 [3]: 0.2 to 0.5 µM; Potency ranking [3]: 1; fold increase in % tail DNA (DNA damage) compared to the vehicle control [3]: 6.1–8.1 fold; Cytotoxicity ([4]; PHHs, 4 μM, ref Seo et al., 2020): 25%; LEC (lowest effective concentration) [5, 16]: 1 µM; BMDU/BMDL ([5]; PHH, ref Seo et al., 2020): 3.2
7 | COc1cc2c(c(OC)c1OC)-c1ccc(OC)c(=O)cc1[C@@H](NC(C)=O)CC2 [Colchicine] | – | – | + (11–30 %) | + (11–30 %) | – | – | – | – | – | – | – | –
8 | COc1cc(/C=C/C(=O)CC(=O)/C=C/c2ccc(O)c(OC)c2)ccc1O [Curcumin] | – | 40 µM | + (11–30 %) | + (11–30 %) | 40 µM | – | – | – | – | – | – | –
9 | Cc1c2ccccc2c(C)c2c1ccc1ccccc12 [DMBA, 7,12-dimethylbenzanthracene] | (+) for MLA, CA, MN, comet, and UDS | 500 µM | + (11–30 %) | − (cytotoxicity of 0–10 %) | 250 µM | 15.1 µM | 8.5 to 25.8 µM | 6 | ++ (2 < ratio ≤ 5) | (+) for MN and Pig-a in blood, comet in liver, CA in BM, gene mutation | (+) for mammary liver, skin tumor, etc. | cytotoxic effects (in words) ([2]; PMHs, ATP assay, 24-h exposure): cytotoxic effects over the same range of concentrations, but only in PMHs; BMD50 fold higher in PHHs than in PMHs (lower in PMHs) ([3]; CometChip BMD50, PHH vs PMH): 3.8 fold and 3.75 fold; BMDU/BMDL [3]: 2.4; BMD50 [3]: 4.0 µM; DNA damage (ratio of %DNA in tail at highest concentration to vehicle control) [3]: +++ (the ratio > 5); LEC (lowest effective concentration) [3]: 31.25 µM; BMDL50–BMDU50 [3]: 2.6 to 6.1 µM; Potency ranking [3]: 3; fold increase in % tail DNA (DNA damage) compared to the vehicle control [3]: 6.1–8.1 fold; LEC fold higher in PHHs than in PMHs ([3]; comet assay LEC, PHH vs PMH): 2 fold; LEC (lowest effective concentration) [5, 16]: 62.5 µM; BMDU/BMDL ([5]; PHH, ref Seo et al., 2020): 3.0
10 | CCc1cc(C(N)=S)ccn1 [Ethionamide] | – | 2000 µM | + (11–30 %) | + (11–30 %) | 2000 µM | – | – | – | − (The ratio ≤ 1.5-fold and p ≥ 0.05) | (−) for comet | (−) in rats and mice | –
11 | Oc1ccc(O)cc1 [HQ, hydroquinone] | (+) for MLA, MN, CA, comet | 200 µM | + (11–30 %) | ++ (31–50 %) | 200 µM | – | – | – | − (The ratio ≤ 1.5-fold and p ≥ 0.05) | (+) for CA, MN; (−) for comet and TG in liver and stomach | (+) for liver and kidney adenoma | viability at 24 h, 200 µM [9]: 78 to 81%; cell viability ([4]; PHHs, 200 μM, range given for cisplatin and HQ together, ref Seo et al., 2020): 55–63%
12 | Cn1c(N)nc2c3cccnc3ccc21 [IQ, 2-amino-3-methylimidazo-[4,5-f]-quinoline] | – | – | – | – | – | – | – | – | – | – | – | DNA adducts in several organs, particularly liver, kidney, and heart (cynomolgus monkeys): high levels of DNA adducts
13 | COS(C)(=O)=O [MMS, methyl methanesulfonate] | – | – | – | – | – | – | – | – | – | – | – | Max. con. [4]: 500 µM; BMD50 [5]: 1.0 µM; BMDL50–BMDU50 [5]: 0.5 to 1.9 µM; BMDU/BMDL [5]: 3.5; LEC (lowest effective concentration) [5]: 62.5 µM; Potency ranking [5]: 3; BMDL50–BMDU50 [10]: 14.2 to 33.7 µM; BMDU/BMDL [10]: 2.4; LEC (lowest effective concentration) [10]: 125 µM; Potency ranking [10]: 6; Genotoxicity assay findings in vivo ([6]; in vivo): (+) for CA, MN, UDS, Pig-a, TG, comet; Max. con. [8]: 500 µM
14 | Cn1c(N)nc2ncc(-c3ccccc3)cc21 [PhIP, 2-amino-1-me-thyl-6-phenylimidazo-[4,5-b]-pyridine] | – | – | – | – | – | – | – | – | – | – | – | DNA adducts in several organs, particularly liver, kidney, and heart (cynomolgus monkeys): high levels of DNA adducts
15 | Oc1cccc(O)c1 [Resorcinol] | – | 1000 µM | ++ (31–50 %) | ++ (31–50 %) | 2000 µM | – | – | – | − (The ratio ≤ 1.5-fold and p ≥ 0.05) | – | (−) in rats and mice | –
16 | Nc1ccccc1C(=O)O [o-Anthranilic acid] | – | 5000 µM | ++ (31–50 %) | − (cytotoxicity of 0–10 %) | 5000 µM | – | – | – | − (The ratio ≤ 1.5-fold and p ≥ 0.05) | (−) for Pig-a, MN, CA, comet | – | cytotoxic effects (in words) ([2]; PMHs, ATP assay, 24-h exposure): cytotoxic effects over the same range of concentrations, but only in PMHs; DNA damage (ratio of %DNA in tail at highest concentration to vehicle control) [3]: − (The ratio ≤ 1.5-fold and p ≥ 0.05)
